Measurements taken from PubChem BioAssay (NCI).
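How tested: cells in 96-well plates exposed to compound for 48 hours at five concentrations. Here, GI50 denotes the concentration required for 50% inhibition of growth. Definition used: TGI = concentration required for complete inhibition of growth.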

How the values were obtained:
Experiment in all cases: inhibition of tumour cell growth, NCI panel, 48 h
[1] = tested on: 786-0 renal
[2] = tested on: DU-145 prostate
[3] = tested on: HCT-15 colon
[4] = tested on: HOP-62 NSCLC
[5] = tested on: HOP-92 NSCLC
[6] = tested on: HS 578T breast
[7] = tested on: MCF7 breast
[8] = tested on: MDA-MB-435
[9] = tested on: NCI-H226 lung
[10] = tested on: NCI/ADR-RES ovarian
[11] = tested on: OVCAR-8 ovarian
[12] = tested on: SF-268 CNS
[13] = tested on: SF-295 CNS
[14] = tested on: SK-MEL-5 melanoma
[15] = tested on: SNB-19 CNS
[16] = tested on: SNB-75 CNS
[17] = tested on: SR leukemia
[18] = tested on: A498 renal
[19] = tested on: A549 NSCLC
[20] = tested on: ACHN renal
[21] = tested on: BT-549 breast
[22] = tested on: CAKI-1 renal
[23] = tested on: CCRF-CEM leukemia
[24] = tested on: COLO 205 colon
[25] = tested on: HCC-2998 colon
[26] = tested on: HCT-116 colon
[27] = tested on: HL-60(TB) leukemia
[28] = tested on: HT29 colon
[29] = tested on: IGROV1 ovarian
[30] = tested on: K-562 leukemia
[31] = tested on: KM12 colon
[32] = tested on: LOX IMVI melanoma
[33] = tested on: M14 melanoma
[34] = tested on: MALME-3M melanoma
[35] = tested on: MDA-MB-231 breast
[36] = tested on: MOLT-4 leukemia
[37] = tested on: NCI-H460 lung
[38] = tested on: NCI-H522 lung
[39] = tested on: OVCAR-3 ovarian
[40] = tested on: OVCAR-4 ovarian
[41] = tested on: OVCAR-5 ovarian
[42] = tested on: RPMI-8226 leukemia
[43] = tested on: RXF 393 renal
[44] = tested on: SF-539 CNS
[45] = tested on: SK-MEL-2 melanoma
[46] = tested on: SK-MEL-28 melanoma
[47] = tested on: SK-OV-3 ovarian
[48] = tested on: SN12C renal
[49] = tested on: SW-620 colon
[50] = tested on: T-47D breast
[51] = tested on: TK-10 renal
[52] = tested on: U251 CNS
[53] = tested on: UACC-257 melanoma
[54] = tested on: UO-31 renal
[55] = tested on: EKVX NSCLC
[56] = tested on: NCI-H23 lung
[57] = tested on: PC-3 prostate
[58] = tested on: UACC-62 melanoma

COc1ccc(C(=O)/C=C/c2cc3c(c(OC)c2)OCC(=O)N3)cc1
GI50 [1]: 3.36 µM | TGI [1]: > 100 µM | GI50 [2]: 2.74 µM | TGI [2]: > 100 µM | GI50 [3]: 1.92 µM | TGI [3]: > 100 µM | GI50 [4]: 3.73 µM | TGI [4]: > 100 µM | GI50 [5]: 1.27 µM | TGI [5]: 17.7 µM | GI50 [6]: 3.63 µM | TGI [6]: > 100 µM | GI50 [7]: 2.32 µM | TGI [7]: > 100 µM | GI50 [8]: 3.11 µM | TGI [8]: > 100 µM | GI50 [9]: 3.88 µM | TGI [9]: > 100 µM | GI50 [10]: 3.14 µM | TGI [10]: > 100 µM | GI50 [11]: 2.85 µM | TGI [11]: > 100 µM | GI50 [12]: 3.42 µM | TGI [12]: > 100 µM | GI50 [13]: 4.57 µM | TGI [13]: > 100 µM | GI50 [14]: 2.88 µM | TGI [14]: > 100 µM | GI50 [15]: 3.26 µM | TGI [15]: > 100 µM | GI50 [16]: 1.66 µM | TGI [16]: 11.5 µM | GI50 [17]: 1.05 µM | TGI [17]: > 100 µM

Cc1cc(Nc2c3ccccc3nc3ccccc23)ccc1NS(C)(=O)=O
GI50 [1]: 4.73 µM | TGI [1]: 16.7 µM | GI50 [18]: 2.24 µM | TGI [18]: 10.6 µM | GI50 [19]: 2.85 µM | TGI [19]: 12 µM | GI50 [20]: 2.96 µM | TGI [20]: 12.5 µM | GI50 [21]: 10.3 µM | TGI [21]: 22.5 µM | GI50 [22]: 3.36 µM | TGI [22]: 15.6 µM | GI50 [23]: 3.25 µM | TGI [23]: 20.3 µM | GI50 [24]: 2.44 µM | TGI [24]: 6.35 µM | GI50 [2]: 4.87 µM | TGI [2]: 19.9 µM | GI50 [25]: 5.94 µM | TGI [25]: 20.7 µM | GI50 [26]: 3.12 µM | TGI [26]: 11.6 µM | GI50 [3]: 4.12 µM | TGI [3]: 20.5 µM | GI50 [27]: 3.67 µM | TGI [27]: 12.1 µM | GI50 [4]: 4.61 µM | TGI [4]: 17.9 µM | GI50 [5]: 0.758 µM | TGI [5]: 5.69 µM | GI50 [6]: 2.45 µM | TGI [6]: 11.7 µM | GI50 [28]: 3.38 µM | TGI [28]: 12.8 µM | GI50 [29]: 3.07 µM | TGI [29]: 11 µM | GI50 [30]: 3.59 µM | TGI [30]: 14.5 µM | GI50 [31]: 4.2 µM | TGI [31]: 16.2 µM | GI50 [32]: 3.13 µM | TGI [32]: 13.5 µM | GI50 [33]: 3.69 µM | TGI [33]: 14.1 µM | GI50 [34]: 3.4 µM | TGI [34]: 10.3 µM | GI50 [7]: 3.99 µM | TGI [7]: 18.4 µM | GI50 [35]: 4.35 µM | TGI [35]: 19.7 µM | GI50 [8]: 4.26 µM | TGI [8]: 25.4 µM | GI50 [36]: 3.28 µM | TGI [36]: 9.61 µM | GI50 [9]: 4.41 µM | TGI [9]: 22 µM | GI50 [37]: 3.07 µM | TGI [37]: 11.6 µM | GI50 [38]: 3.3 µM | TGI [38]: 13.1 µM | GI50 [10]: 5.63 µM | TGI [10]: 52.5 µM | GI50 [39]: 6.13 µM | TGI [39]: 20.1 µM | GI50 [40]: 5.03 µM | TGI [40]: 46.5 µM | GI50 [41]: 6.14 µM | TGI [41]: 22.2 µM | GI50 [11]: 3.41 µM | TGI [11]: 21.7 µM | GI50 [42]: 3.02 µM | TGI [42]: 11.2 µM | GI50 [43]: 3.46 µM | TGI [43]: 16 µM | GI50 [12]: 4.66 µM | TGI [12]: 19.2 µM | GI50 [13]: 4.26 µM | TGI [13]: 23.4 µM | GI50 [44]: 3.74 µM | TGI [44]: 14.9 µM | GI50 [45]: 3.42 µM | TGI [45]: 10.6 µM | GI50 [46]: 5.4 µM | TGI [46]: 19.5 µM | GI50 [14]: 4.2 µM | TGI [14]: 16.6 µM | GI50 [47]: 6.28 µM | TGI [47]: 20.1 µM | GI50 [48]: 3.78 µM | TGI [48]: 20.8 µM | GI50 [15]: 5.65 µM | TGI [15]: 35.9 µM | GI50 [16]: 5.11 µM | TGI [16]: 19.9 µM | GI50 [17]: 2.11 µM | TGI [17]: 5.91 µM | GI50 [49]: 3.36 µM | TGI [49]: 15.9 µM | GI50 [50]: 5.51 µM | TGI [50]: 24.5 µM | GI50 [51]: 3.23 µM | TGI [51]: 11.7 µM | GI50 [52]: 3.17 µM | TGI [52]: 14 µM | GI50 [53]: 2.41 µM | TGI [53]: 9.58 µM | GI50 [54]: 1.9 µM | TGI [54]: 8.76 µM

COP(=O)(Cc1ccccc1)Cc1ccccc1
TGI [1]: > 100 µM | TGI [19]: > 100 µM | TGI [20]: > 100 µM | TGI [21]: > 100 µM | TGI [22]: > 100 µM | TGI [23]: > 100 µM | TGI [24]: > 100 µM | TGI [2]: > 100 µM | TGI [55]: > 100 µM | TGI [25]: > 100 µM | TGI [26]: > 100 µM | TGI [3]: > 100 µM | TGI [27]: > 100 µM | TGI [4]: > 100 µM | TGI [6]: > 100 µM | TGI [28]: > 100 µM | TGI [29]: > 100 µM | TGI [30]: > 100 µM | TGI [32]: > 100 µM | TGI [33]: > 100 µM | TGI [34]: > 100 µM | TGI [7]: > 100 µM | TGI [35]: > 100 µM | TGI [36]: > 100 µM | TGI [9]: > 100 µM | TGI [56]: > 100 µM | TGI [37]: > 100 µM | TGI [38]: > 100 µM | TGI [10]: > 100 µM | TGI [40]: > 100 µM | TGI [41]: > 100 µM | TGI [11]: > 100 µM | TGI [57]: > 100 µM | TGI [42]: > 100 µM | TGI [43]: > 100 µM | TGI [12]: > 100 µM | TGI [13]: > 100 µM | TGI [44]: > 100 µM | TGI [45]: > 100 µM | TGI [46]: > 100 µM | TGI [14]: > 100 µM | TGI [47]: > 100 µM | TGI [48]: > 100 µM | TGI [16]: > 100 µM | TGI [17]: > 100 µM | TGI [49]: > 100 µM | TGI [50]: > 100 µM | TGI [51]: > 100 µM | TGI [52]: > 100 µM | TGI [53]: > 100 µM | TGI [58]: > 100 µM | TGI [54]: > 100 µM
